Experimental data from PMC9227013, “Synthesis, Anticancer Potential and Comprehensive Toxicity Studies of Novel Brominated Derivatives of Bacterial Biopigment Prodigiosin from Serratia marcescens ATCC 27117” (Molecules, 2022).
≈ marks a conversion by molar mass, not a printed value. Where two headings read alike, the source gives them in different places.

Key:
[1] = tested on: zebrafish (Danio rerio) embryos; test: Zebrafish (D. rerio) embryotoxicity; type: in vivo
Procedure: Wild-type zebrafish (Danio rerio) strain was obtained from the commercial supplier Pet Center, Belgrade, Serbia. Zebrafish embryotoxicity assay was performed according to general rules of the OECD Guidelines for the testing of chemicals. The wild-type zebrafish (D. rerio) strain was kept under controlled environmental conditions (water temperature 28 °C, 14 h under the light and 10 h in the dark) and fed regularly three times a day with commercially dry flake food supplemented with Artemia nauplii (TetraMinTM flakes; Tetra Melle, Germany). Zebrafish embryos were produced by female and male adults mating in the ratio of 1:2. Obtained embryos were collected and washed from detritus and carefully handled. Only fertilized embryos were selected and distributed into 24-well plates (Sarstedt, Germany) containing 10 embryos per well. Each well contained exactly 1 mL of water for embryos (0.2 g/L of Instant Ocean® Salt in distilled water). For assessing lethal and developmental toxicity, embryos at the 6 and 20 h postfertilization (hpf) stages were treated with selected compounds at concentrations of 0.1–100 μg/mL (maximum DMSO concentration in the negative control was 1%) and incubated at 28 °C. Experiments were performed in triplicate, using 30 embryos for each concentration. For five days, the appearance of different morphophysiological parameters in embryo development was monitored, and dead embryos were counted and discarded every 24 h. On the fifth day, the embryos were anesthetized by the addition of 0.1% (w/v) tricaine solution (Sigma-Aldrich, St. Louis, Missouri, US), observed under a stereomicroscope (SMZ-143-N2GG, Motic, Germany) at 3.5× magnification, photographed, and killed by freezing at −20 °C for ≥24 h. All experiments involving zebrafish were performed in compliance with the European directive 2010/63/EU and the ethical guidelines of the Guide for Care and Use of Laboratory Animals of the Institute of Molecular Genetics and Genetic Engineering, University of Belgrade, Serbia.

[2] = tested on: A375 (melanoma, skin cancer); test: MTT antiproliferative assay on A375 cells; type: cell-based; settings: Homo sapiens, A-375; A375, 48 h treatment; read-out: IC50
Procedure: (§1) Selected cell lines MRC-5 (lung fibroblasts), A549 (lung cancer), A375 (melanoma, skin cancer), MDA-MB-231 (breast cancer), and HCT116 (colon cancer) were obtained from ATCC, Manassas, US. Antiproliferative activities of PG and its Br derivatives were measured using the standard colorimetric MTT [3-(4,5-dimethylthiazol-2-yl)-2,5-diphenyltetrazolium bromide] assay. Briefly, cells were plated in a 96-well flat-bottom plate (Sarstedt, Nümbrecht, Germany) at a concentration of 1 × 10^4 cells per well, grown in a humidified atmosphere of 95% air and 5% CO2 at 37 °C, and maintained as monolayer cultures in RPMI 1640 medium supplemented with 10% fetal bovine serum (FBS), 100 U/mL penicillin, and 100 μg/mL streptomycin (all media components from Gibco™ by Thermo Fischer Scientific CE). Each tested compound was added to the cells at a concentration of 0.05–100.00 μg/mL, and the treatment lasted for 48 h. The MTT assay was performed two times in four replicates, and the results were presented as a percentage of the DMSO-treated control that was arbitrarily set to 100%. Plates were read using the Tecan Infinite 200 Pro multiplate reader (Tecan Group Ltd., Männendorf, Switzerland).

[3] = tested on: HCT116 (colon cancer); test: MTT antiproliferative assay on HCT116 cells; type: cell-based; settings: Homo sapiens, HCT-116, read-out: IC50
Procedure: as §1
(§2) To assess the effect of the treatment duration, exposure of MRC-5 and HCT116 cells to PG and its Br derivatives was observed after 24 h, 48 h, and 72 h and measured using the MTT assay, as described above. MRC-5 and HCT-116 cells treated for 24 h were additionally analyzed using DM IL LED Inverted Microscope (Leica Microsystems, Mannheim, Germany) at 20× magnification.

[4] = tested on: Caenorhabditis elegans AU37; test: Roundworm (C. elegans) survival assay; type: in vivo; settings: for Survival rate: 48 h
Procedure: Nematode roundworms (Caenorhabditis elegans AU37) were obtained from the Caenorhabditis Genetics Center (CGC), University of Minnesota, Minneapolis, Minnesota, US. C. elegans AU37 (glp-4; sek-1) was propagated under standard conditions, synchronized by hypochlorite bleaching, and cultured on nematode growth medium using E. coli OP50 as a food source, as described previously. The C. elegans survival assay was carried out following the standard procedure with some modifications. Briefly, synchronized worms (L4 stage) were suspended in a medium containing 95% M9 buffer (3.0 g of KH2PO4, 6.0 g of Na2HPO4, 5.0 g of NaCl, and 1 mL of 1 M MgSO4∙7H2O in 1 L of water), 5% LB broth, and 10 μg/mL of cholesterol (Sigma-Aldrich, Munich, Germany). The experiment was carried out in 96-well flat-bottomed microtiter plates (Sarstedt, Nümbrecht, Germany) in the final volume of 100 μL per well. 25 μL of this suspension of nematodes (25–35 nematodes) were transferred to the wells of a 96-well microtiter plate, where 50 μL of the medium was previously added. Next, 25 μL of the solvent control (1% DMSO) or 25 μL of the concentrated tested compound solution was added to the test wells. Final concentrations of the compounds were 50.00, 25.00, 12.50, 6.25, 3.13, and 1.57 µg/mL. Subsequently, the plates were incubated at 25 °C for 2 days. The fraction of dead worms was determined after 48 h by counting the number of dead worms and the total number of worms in each well, using a Carl Zeiss™ Stemi 508 Stereomicroscope (Zeiss Group, Jena, Germany) at 40× magnification. The compounds were tested three times in each assay and each assay was repeated two times (n = 6). As a negative control experiment, nematodes were exposed to the medium containing 1% DMSO.

[5] = tested on: A549 (lung cancer); test: MTT antiproliferative assay on A549 cells; type: cell-based; settings: Homo sapiens; A549, 48 h treatment; read-out: IC50
Procedure: as §1

[6] = tested on: MDA-MB-231 (breast cancer); test: MTT antiproliferative assay on MDA-MB-231 cells; type: cell-based; settings: Homo sapiens; MDA-MB-231, 48 h treatment; read-out: IC50
Procedure: as §1

[7] = tested on: MRC-5 cells; test: Annexin V flow cytometry, early apoptosis; type: cell-based; settings: MRC-5, compound at IC50 concentration, 24 h
Procedure: The eBioscience^TM Annexin V Apoptosis Detection Kit APC (Invitrogen by Thermo Fischer Scientific, Waltham, MA, USA) was used for the assessment of cellular integrity and the externalization of phosphatidylserine. MRC-5 cells were plated in a 6-well flat-bottom plate at a concentration of 2.5 × 10^5 cells per well, grown for 24 h in a humidified atmosphere of 95% air and 5% CO2 at 37 °C in RPMI 1640 medium supplemented with 10% fetal bovine serum (FBS), 100 U/mL penicillin, and 100 μg/mL streptomycin (Gibco™ by Thermo Fischer Scientific CE, Waltham, MA, USA). Each tested compound was added to the cells at IC50 concentration, and the incubation continued for another 24 h under the same conditions. Upon incubation, cells were collected, washed once with Dulbecco’s Phosphate-Buffered Saline (Gibco™ by Thermo Fischer Scientific CE, Waltham, MA, USA), and stained with Annexin V FITC and propidium iodide (PI) under the manufacturer’s instructions. Briefly, MRC-5 cells were resuspended in 1 × Binding Buffer at 1–5 × 10^6 cells per mL and incubated with 5.00 µL Annexin V FITC for 15 min at room temperature in a final volume of 100 μL. […] Immediately after staining, cells were analyzed using a CyFlow Space Partec flow cytometer, with Partec FloMax software (Partec GmbH, Münster, Germany).

[8] = tested on: A549, A375, MDA-MB-231, and HCT116 cancer cell lines; test: MTT assay, whole cell line panel; type: cell-based; settings: human, 48 h
Procedure: as §1

[9] = tested on: MRC-5 (lung fibroblasts); test: MTT antiproliferative assay on MRC-5 cells; type: cell-based; settings: Homo sapiens, MRC5, read-out: IC50
Procedure: as §1, §2

[10] = tested on: breast cancer cell lines; parameters: method as in printed; settings: breast cancer cells, 72 h exposure; literature, ref not given; cited from earlier work
[11] = tested on: WI-38-40 (fibroblasts); parameters: method as in printed; settings: WI-38-40, 72 h exposure; literature, ref not given; cited from earlier work
[12] = tested on: HBL-100 (breast epithelial cells); parameters: method as in printed; settings: HBL-100, 72 h exposure; literature, ref not given; cited from earlier work

With CCCCCC1=C(Br)/C(=C/c2[nH]c(-c3[nH]ccc3Br)cc2OC)N=C1C [PG-Br2] the death rate ([1]; 10 µg/mL applied at 6 hpf) was 0%, the embryos survival rate ([1]; 20 µg/mL, 6 hpf and 20 hpf) was 100% and the teratogenic effects ([1]; 20 µg/mL, 6 hpf and 20 hpf) was “without any teratogenic effects”. For the same compound, the effect on embryos ([1]; 50–70 µg/mL, application at 6 hpf) was “severe toxicity and abnormal development”, the IC50 [2] was 12 ± 0.04 µg/mL (≈ 24.9 µM) and the IC50 ([3]; HCT116, 48 h treatment) was 10 ± 0.08 µg/mL (≈ 20.8 µM). For the same compound, the IC50 ([3]; HCT116, exposure time 24 h) was 50 ± 0.09 µg/mL (≈ 104 µM), the IC50 ([3]; HCT116, exposure time 72 h) was 10 ± 0.05 µg/mL (≈ 20.8 µM) and the Survival rate ([4]; 1.57 µg/mL) was 100 ± 0.00%. For the same compound, the Survival rate ([4]; 3.13 µg/mL) was 100 ± 0.00%, the Survival rate ([4]; 6.25 µg/mL) was 100 ± 0.00% and the Survival rate ([4]; 12.50 µg/mL) was 100 ± 0.00%. For the same compound, the Survival rate ([4]; 25.00 µg/mL) was 100 ± 0.00%, the Survival rate ([4]; 50.00 µg/mL) was 100 ± 0.00% and the motility of nematodes ([4]; all tested concentrations) was “significantly impaired”. The IC50 [5] was 16 ± 0.08 µg/mL (≈ 33.2 µM), the IC50 [6] was 17 ± 0.05 µg/mL (≈ 35.3 µM) and the “Annexin V Positive Cells” value [7] was 19.6 ± 0.6%. For the same compound, the “lower cytotoxicity in comparison to PG” value [8] was 8-27 fold, the IC50 ([9]; MRC-5, 48 h treatment) was 10 ± 0.09 µg/mL (≈ 20.8 µM) and the IC50 ([9]; MRC-5, exposure time 24 h) was 15 ± 0.05 µg/mL (≈ 31.2 µM). It also gave an IC50 ([9]; MRC-5, exposure time 72 h) of 10 ± 0.08 µg/mL (≈ 20.8 µM).

In the case of cycloprodigiosin [cPG], the IC50 [10] is listed as 0.15 to 0.20 µg/mL, the “dose for growth inhibition” value [11] is listed as 0.73 µg/mL and the “dose for growth inhibition” value [12] is listed as 0.57 µg/mL.
